How the values were obtained:
NDR1, NDR2 = experiment: KiNativ, OCI cells live cell; assay type: cell-based, human; settings: labeling site Activation Loop, peptide LSDFGLCTGLKK
AKT1, AKT3 = experiment: KiNativ, OCI cells live cell; assay type: cell-based, human

`CN1CCN(Cc2ccc(Nc3ncc(Cl)c(Nc4ccccc4S(=O)(=O)N(C)C)n3)cc2)CC1` [TP-0903] was tested, and the Inhibition (NDR1, NDR2) was 18.3%, the Inhibition (AKT1, AKT3; labeling site Lys1, peptide YYAMKILK) was -15.9% and the Inhibition (AKT1, AKT3; labeling site Lys2, peptide DLKLENLMLDKDGHIK) was -30.0%.

— publication PMC7714403 (JCI Insight, 2020)
